Experiments:
[1] = test system: HCT116 MTAP null cells; assay: HCT116 MTAP null cell line proliferation / cell viability (CellTiter-Glo, 6 days); assay type: cell-based; settings: 144 h; HCT116 MTAP null cells, 6 days treatment, CellTiter-Glo cell viability; read-out: HCT-116 MTAP null IC50
Summary of the method: (§1)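 Anti-proliferative IC50s were derived from CellTiter-Glo signal in HCT116 parent and MTAP-null cells after six days on compound. Serial dilutions reached top concentrations of 1, 10 or 50 μM, with DMSO-only wells as control.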

[2] = test system: HCT116 WT cells; assay: HCT116 WT (parent) cell line proliferation / cell viability (CellTiter-Glo, 6 days); assay type: cell-based; settings: Homo sapiens, HCT-116, 144 h, 6 days treatment
Summary of the method: as §1

| IC50 [1] [nM] | IC50 [2] [nM] | SMILES |
| --- | --- | --- |
| 70 | 5110 | Cc1n[nH]c2c1c(N)nc1cnc(C(=O)N(C)[C@@H]3COc4cc(C(F)(F)F)ccc43)cc12 [Example 264, 4-amino-N,3-dimethyl-N-((3S)-6-(trifluoromethyl)-2,3-dihydro-1-benzofuran-3-yl)-1H-pyrazolo[4,3-c][1,7]naph-thyridine-8-carboxamide] |
| 19 | 234 | Cc1nc2nc(N)c3cnn(C)c3c2cc1C(=O)N(C)[C@@H]1COc2cc(Cl)c(Cl)cc21 [Example 252, 4-amino-N-((3S)-5,6-dichloro-2,3-dihydro-1-benzofuran-3-yl)-N,1,7-trimethyl-1H-pyrazolo[4,3-c][1,8]naphthyr-idine-8-carboxamide] |
| 68 | 1520 | CN(C(=O)c1cc2c(cc1F)nc(N)c1c2cnn1C)[C@@H]1COCc2cc(C(F)(F)F)ccc21 [Example 514, 4-amino-7-fluoro-N,3-dimethyl-N-((4S)-7-(trifluoromethyl)-3,4-dihydro-1H-2-benzopyran-4-yl)-3H-pyrazolo[3,4-c]quinoline-8-carboxamide] |
| 91 | 5540 | CN(C(=O)c1cc2c3c(c(N)nc2cc1F)COC3)C1COc2cc(OC(F)F)ccc21 (racemic) [Example 459, 4-amino-N-((3R)-6-(difluoromethoxy)-2,3-dihydro-1-benzofuran-3-yl)-7-fluoro-N-methyl-1,3-dihydrofuro[3,4-c]quinoline-8-carboxamide and 4-amino-N-((3S)-6-(difluoromethoxy)-2,3-dihydro-1-benzofuran-3-yl)-7-fluoro-N-methyl-1,3-dihydrofuro[3,4-c]quinoline-8-carboxamide] |
| 92 | 2050 | CN(C(=O)c1cnc2nc(N)c3c(c2c1)COC3)[C@@H]1COCc2cc(C(F)(F)F)ccc21 [Example 493, 4-amino-N-methyl-N-((4S)-7-(trifluoromethyl)-3,4-dihydro-1H-2-benzopyran-4-yl)-1,3-dihydrofuro[3,4-c][1,8]naphthyridine-8-carboxamide] |
| 308 | 20200 | CN(C(=O)c1cc(F)c2nc(N)c3cnn(C)c3c2c1)[C@@H]1COc2cc(C(F)(F)F)ccc21 [Example 254, 4-amino-6-fluoro-N,1-dimethyl-N-((3S)-6-(trifluoromethyl)-2,3-dihydro-1-benzofuran-3-yl)-1H-pyrazolo[4,3-c]quinoline-8-carboxamide] |
| 956 | 31400 | C[C@@H]1OCc2c1c(N)nc1cnc(C(=O)N(C)[C@@H]3COCc4nc(C(F)(F)F)ccc43)cc21 [Example 271, (3S)-4-amino-N,3-dimethyl-N-((5S)-2-(trifluoromethyl)-5,8-dihydro-6H-pyrano[3,4-b]-pyridin-5-yl)-1,3-dihydrofuro-[3,4-c][1,7]naphthyridine-8-carboxamide] |
| 185 | 9110 | Cc1noc2c1c(N)nc1ccc(C(=O)N(C)[C@@H]3COCc4cc(C(F)(F)F)ccc43)cc12 [Example 498, 4-amino-N,3-dimethyl-N-((4S)-7-(trifluoromethyl)-3,4-dihydro-1H-2-benzopyran-4-yl)[1,2]oxazolo[4,5-c]quinoline-8-carboxamide] |
| 871 | 38300 | CN(C(=O)c1cc2c3c(c(N)nc2cc1F)COC3)[C@@H]1COc2cc(C(F)(F)F)cnc21 (mixture of isomers) [Example 461, 4-amino-7-fluoro-N-methyl-N-((3R)-6-(trifluoromethyl)-2,3-dihydrofuro[3,2-b]pyridin-3-yl)-1,3-dihydrofuro[3,4-c]quinoline-8-carboxamide and 4-amino-7-fluoro-N-methyl-N-((3S)-6-(trifluoromethyl)-2,3-dihydrofuro[3,2-b]pyridin-3-yl)-1,3-dihydrofuro[3,4-c]quinoline-8-carboxamide] |
| 696 | 10000 | C[C@H]1OCc2c1c(N)nc1ccc(C(=O)N(C)[C@H]3COCc4cc(Br)ccc43)cc21 (single isomer, unassigned) [Example 395] |
| 221 | 5590 | CN(C(=O)c1cc2c(cc1F)nc(N)c1c2cnn1C)C1CSc2cc(Br)ccc21 (racemic) [Example 484, 4-amino-N-((3R)-6-bromo-2,3-dihydro-1-benzothiophen-3-yl)-7-fluoro-N,3-dimethyl-3H-pyrazolo[3,4-c]quinoline-8-carboxamide and 4-amino-N-((3S)-6-bromo-2,3-dihydro-1-benzothiophen-3-yl)-7-fluoro-N,3-dimethyl-3H-pyrazolo[3,4-c]quinoline-8-carboxamide] |
| 21 | 1470 | CCOc1ccc2c(n1)COC[C@H]2N(C)C(=O)c1ccc2nc(N)c3cnn(C)c3c2c1 (single isomer, unassigned) [Example 410] |
| 78 | 4880 | CN(C(=O)c1cc2c(cc1Cl)nc(N)c1c2cnn1C)[C@@H]1COc2cc(C(F)(F)F)ccc21 [Example 486, 4-amino-7-chloro-N,3-dimethyl-N-((3S)-6-(trifluoromethyl)-2,3-dihydro-1-benzofuran-3-yl)-3H-pyrazolo[3,4-c]quinoline-8-carboxamide] |
| 6 | 222 | CN(C(=O)c1cc2c(cc1F)nc(N)c1cnn(C)c12)[C@@H]1COc2cc(OC(F)F)ccc21 (single isomer, unassigned) [Example 569] |
| 14 | 481 | CN(C(=O)c1ccc2nc(N)c3cnn(C)c3c2c1)[C@@H]1COc2cc(-c3ccc(C(F)(F)F)cc3F)ccc21 [Example 661, 4-amino-N-((3S)-6-(2-fluoro-4-(trifluoromethyl)phenyl)-2,3-dihydro-1-benzofuran-3-yl)-N,1-dimethyl-1H-pyrazolo[4,3-c]quinoline-8-carboxamide] |
| 18 | 1260 | Cn1ncc2c(N)nc3ccc(C(=O)N(C4CC4)[C@@H]4COCc5nc(C(F)(F)F)ccc54)cc3c21 [Example 503, 4-amino-N-cyclopropyl-1-methyl-N-((5S)-2-(trifluoromethyl)-5,8-dihydro-6H-pyrano[3,4-b]pyridin-5-yl)-1H-pyrazolo[4,3-c]quinoline-8-carboxamide] |
| 5 | 205 | CN(C(=O)c1cc2c3c(c(N)nc2cc1Cl)COC3)[C@@H]1COCc2cc(C#N)ccc21 [Example 496, 4-amino-7-chloro-N-((4S)-7-cyano-3,4-dihydro-1H-2-benzopyran-4-yl)-N-methyl-1,3-dihydrofuro[3,4-c]quinoline-8-carboxamide] |
| 1060 | 19400 | CN(C(=O)c1cc2c3c(c(N)nc2cn1)COC3)[C@H]1COc2cc(S(F)(F)(F)(F)F)ccc21 (single isomer, unassigned) [Example 344] |
| 6 | 227 | CN(C(=O)c1ccc2nc(N)c3cnn(C)c3c2c1)[C@@H]1COCc2nc(C3CC3)ccc21 [Example 684, 4-amino-N-((5S)-2-cyclopropyl-5,8-dihydro-6H-pyrano[3,4-b]pyridin-5-yl)-N,1-dimethyl-1H-pyrazolo[4,3-c]quinoline-8-carboxamide] |
| 37 | 2530 | CN(C(=O)c1ccc2nc(N)c3cnn(C)c3c2c1)[C@@H]1CCc2cc(Br)ccc21 (single isomer, unassigned) [Example 368] |
| 11 | 322 | C[C@H]1OC[C@@H](N(C)C(=O)c2cc3c4c(c(N)nc3nc2Cl)COC4)c2ccc(C(F)(F)F)cc21 (single isomer, unassigned) [Example 406] |
| 12 | 208 | CN(C(=O)c1cc2c3c(c(N)nc2cc1F)COC3)[C@@H]1COc2cc(S(F)(F)(F)(F)F)ccc21 (single isomer, unassigned) [Example 357] |
| 1 | 16 | Cc1cc2nc(N)c3cnn(C)c3c2cc1C(=O)N(C)[C@@H]1COCc2nc(Br)ccc21 [Example 298, 4-amino-N-((5S)-2-bromo-5,8-dihydro-6H-pyrano[3,4-b]-pyridin-5-yl)-N,1,7-trimethyl-1H-pyrazolo[4,3-c]quinoline-8-carboxamide] |
| 5280 | 50000 | CN(C(=O)c1ccc2nc(N)c3c(c2c1)COC3)[C@H]1CCc2nc(C(F)(F)F)ccc21 (single isomer, unassigned) [Example 528] |
| 16 | 2050 | CN(C(=O)c1ccc2nc(N)c3cnn(C)c3c2c1)[C@@H]1COc2cc(-c3cnn(C4CC4)c3)ccc21 [Example 640, 4-amino-N-((3S)-6-(1-cyclopropyl-1H-pyrazol-4-yl)-2,3-dihydro-1-benzofuran-3-yl)-N,1-dimethyl-1H-pyrazolo[4,3-c]quinoline-8-carboxamide] |
| 26 | 1820 | CN(C(=O)c1cc2c3c(c(N)nc2cc1Cl)COC3)[C@@H]1COc2nc(C(F)(F)F)ccc21 (single isomer, unassigned) [Example 562] |
| 21 | 2100 | C[C@H]1OC[C@@H](N(C)C(=O)c2ccc3nc(N)c4c(cnn4C)c3c2)c2ccc(C(F)(F)F)cc21 (single isomer, unassigned) [Example 601] |
| 272 | 22400 | CN(C(=O)c1cc2c(cc1F)nc(N)c1cnn(C)c12)[C@H]1COc2cc(C#N)ccc21 (single isomer, unassigned) [Example 374] |
| 3 | 66 | CN(C(=O)c1cc2c(cc1Cl)nc(N)c1cnn(C)c12)[C@@H]1COc2cc(-c3cnn(C(F)(F)F)c3)ccc21 [Example 249, 4-amino-7-chloro-N,1-dimethyl-N-((3S)-6-(1-(trifluoromethyl)-1H-pyrazol-4-yl)-2,3-dihydro-1-benzo-furan-3-yl)-1H-pyrazolo[4,3-c]quinoline-8-carboxamide] |
| 49 | 2350 | CN(C(=O)c1cc2c(cc1F)nc(N)c1cnn(C)c12)[C@@H]1CCCc2nc(C(F)(F)F)ccc21 (single isomer, unassigned) [Example 429] |

Source: patent US20240124442A1, “TRICYCLIC-AMIDO-BICYCLIC PRMT5 INHIBITORS” (AMGEN INC., priority 2021, published 2024)
